What was measured:
Test in all cases: Bliss interaction score (quartile over a dose matrix) (fitness difference); higher = more antagonism (negative = synergy)
S. pneumoniae D39V = test system: S. pneumoniae D39V
How it was run: (§1)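 Fitness is OD595 at stationary-phase entry relative to the plate's robust no-drug mean, capped at 1. Single-drug fitness was inferred from combinations. The Bliss score is observed minus product-expected fitness, summarised by quartiles over technical, biological and donor/recipient replicates.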

S. aureus DSM 20231 = test system: S. aureus DSM 20231
How it was run: as §1

B. subtilis 168 = test system: B. subtilis 168
How it was run: as §1

S. aureus Newman = test system: S. aureus Newman
How it was run: as §1
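Note: first quartile when negative (synergy) and third quartile when positive (antagonism).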

Compound | Bliss interaction score (S. pneumoniae D39V; main component drawn) | Bliss interaction score (S. aureus DSM 20231; main component drawn) | Bliss interaction score (B. subtilis 168; main component drawn) | Bliss interaction score (S. aureus Newman; main component drawn) | Bliss interaction score (S. pneumoniae D39V) | Bliss interaction score (S. aureus DSM 20231) | Bliss interaction score (B. subtilis 168) | Bliss interaction score (S. aureus Newman)
CC[C@H]1OC(=O)[C@H](C)[C@@H](O[C@H]2C[C@@](C)(OC)[C@@H](O)[C@H](C)O2)[C@H](C)[C@@H](O[C@@H]2O[C@H](C)C[C@H](N(C)C)[C@H]2O)[C@](C)(O)C[C@@H](C)C(=O)[C@H](C)[C@@H](O)[C@]1(C)O [Erythromycin] + CCC(C)C1C(=O)NC(=C)C(=O)NC(C(=O)NC(CSCC(C(=O)N1)NC(=O)/C(=C/C)/NC(=O)C(C(C)CC)N)C(=O)NC2C(SCC(NC(=O)CNC(=O)C3CCCN3C2=O)C(=O)NC(CCCCN)C(=O)NC4C(SCC(NC(=O)CNC(=O)C(NC(=O)C(NC(=O)C(NC(=O)CNC4=O)C)CC(C)C)CCSC)C(=O)NC(CC(=O)N)C(=O)NC(CCSC)C(=O)NC(CCCCN)C(=O)NC5C(SCC6C(=O)NC(C(=O)NC(CSC(C(C(=O)N6)NC(=O)C(NC5=O)C)C)C(=O)NC(CO)C(=O)NC(C(C)CC)C(=O)NC(CC7=CN=CN7)C(=O)NC(C(C)C)C(=O)NC(=C)C(=O)NC(CCCCN)C(=O)O)CC8=CN=CN8)C)C)C)CC(C)C [Nisin] | -0.0423 | -0.029 | 0.0295 | -0.028 | – | – | – | –
CO[C@@]12[C@H](COC(N)=O)C3=C(C(=O)C(C)=C(N)C3=O)N1C[C@@H]1N[C@@H]12 [MitomycinC] + Cc1cc(NS(=O)(=O)c2ccc(N)cc2)no1 [Sulfamethoxazol] | – | – | – | – | -0.0583 | 0.036 | 0.082 | 0.0863
CO[C@@]12[C@H](COC(N)=O)C3=C(C(=O)C(C)=C(N)C3=O)N1C[C@@H]1N[C@@H]12 [MitomycinC] + CN[C@H](CC(C)C)C(=O)N[C@H]1C(=O)N[C@@H](CC(N)=O)C(=O)N[C@H]2C(=O)N[C@H]3C(=O)N[C@H](C(=O)N[C@H](C(=O)O)c4cc(O)cc(O)c4-c4cc3ccc4O)[C@H](O)c3ccc(c(Cl)c3)Oc3cc2cc(c3O[C@@H]2O[C@H](CO)[C@@H](O)[C@H](O)[C@H]2O[C@H]2C[C@](C)(N)[C@H](O)[C@H](C)O2)Oc2ccc(cc2Cl)[C@H]1O [Vancomycin] | – | – | – | – | 0.124 | 0.0497 | 0.0157 | -0.0526
CO[C@@H]1[C@@H](OC(N)=O)[C@@H](O)[C@H](Oc2ccc3c(O)c(NC(=O)c4ccc(O)c(CC=C(C)C)c4)c(=O)oc3c2C)OC1(C)C [Novobiocin] + Cn1nnc(-c2ccc(-c3ccc(N4C[C@H](CO)OC4=O)cc3F)cn2)n1 [Tedizolid] | – | – | – | – | -0.131 | -0.0789 | 0.0533 | -0.0571
CO[C@@]12[C@H](COC(N)=O)C3=C(C(=O)C(C)=C(N)C3=O)N1C[C@@H]1N[C@@H]12 [MitomycinC] + COc1cc(Cc2cnc(N)nc2N)cc(OC)c1OC [Trimethoprim] | – | – | – | – | -0.141 | -0.102 | -0.108 | -0.127
CC[C@H]1OC(=O)[C@H](C)[C@@H](O[C@H]2C[C@@](C)(OC)[C@@H](O)[C@H](C)O2)[C@H](C)[C@@H](O[C@@H]2O[C@H](C)C[C@H](N(C)C)[C@H]2O)[C@](C)(O)C[C@@H](C)C(=O)[C@H](C)[C@@H](O)[C@]1(C)O [Erythromycin] + Cc1cc(NS(=O)(=O)c2ccc(N)cc2)no1 [Sulfamethoxazol] | – | – | – | – | -0.0479 | -0.0354 | -0.0511 | -0.0442
CC[C@H]1OC(=O)[C@H](C)[C@@H](O[C@H]2C[C@@](C)(OC)[C@@H](O)[C@H](C)O2)[C@H](C)[C@@H](O[C@@H]2O[C@H](C)C[C@H](N(C)C)[C@H]2O)[C@](C)(O)C[C@@H](C)C(=O)[C@H](C)[C@@H](O)[C@]1(C)O [Erythromycin] + CCN(CC)CCOC(=O)c1ccc(N)cc1 [Procaine] | – | – | – | – | -0.048 | -0.0573 | -0.0671 | 0.0663
CN[C@H](CC(C)C)C(=O)N[C@H]1C(=O)N[C@@H](CC(N)=O)C(=O)N[C@H]2C(=O)N[C@H]3C(=O)N[C@H](C(=O)N[C@H](C(=O)O)c4cc(O)cc(O)c4-c4cc3ccc4O)[C@H](O[C@H]3C[C@](C)(N)[C@@H](O)[C@H](C)O3)c3ccc(c(Cl)c3)Oc3cc2cc(c3O[C@@H]2O[C@H](CO)[C@@H](O)[C@H](O)[C@H]2O[C@H]2C[C@](C)(NCc3ccc(-c4ccc(Cl)cc4)cc3)[C@@H](O)[C@H](C)O2)Oc2ccc(cc2Cl)[C@H]1O [Oritavancin] + Cc1onc(-c2ccccc2)c1C(=O)N[C@@H]1C(=O)N2[C@@H]1SC(C)(C)[C@@H]2C(=O)O [Oxacillin] | – | – | – | – | -0.167 | -0.0461 | 0.0256 | -0.0656
CO[C@@]12[C@H](COC(N)=O)C3=C(C(=O)C(C)=C(N)C3=O)N1C[C@@H]1N[C@@H]12 [MitomycinC] + CCN(CC)CCOC(=O)c1ccc(N)cc1 [Procaine] | – | – | – | – | 0.0639 | 0.0322 | 0.0575 | 0.0275
CC[C@H]1OC(=O)[C@H](C)[C@@H](O[C@H]2C[C@@](C)(OC)[C@@H](O)[C@H](C)O2)[C@H](C)[C@@H](O[C@@H]2O[C@H](C)C[C@H](N(C)C)[C@H]2O)[C@](C)(O)C[C@@H](C)C(=O)[C@H](C)[C@@H](O)[C@]1(C)O [Erythromycin] + C/C(=C\C(=O)OCCCCCCCCC(=O)O)C[C@@H]1OC[C@H](C[C@@H]2O[C@H]2[C@@H](C)[C@H](C)O)[C@@H](O)[C@H]1O [Pseudomonic acid] | – | – | – | – | 0.0664 | -0.0124 | 0.0626 | -0.0171
CC[C@H]1OC(=O)[C@H](C)[C@@H](O[C@H]2C[C@@](C)(OC)[C@@H](O)[C@H](C)O2)[C@H](C)[C@@H](O[C@@H]2O[C@H](C)C[C@H](N(C)C)[C@H]2O)[C@](C)(O)C[C@@H](C)C(=O)[C@H](C)[C@@H](O)[C@]1(C)O [Erythromycin] + C[n+]1ccc(-c2cc[n+](C)cc2)cc1 [Paraquat] | – | – | – | – | 0.0496 | 0.0299 | -0.0399 | 0.0479
CO[C@@]12[C@H](COC(N)=O)C3=C(C(=O)C(C)=C(N)C3=O)N1C[C@@H]1N[C@@H]12 [MitomycinC] + CN(C)c1cc(NC(=O)CNC(C)(C)C)c(O)c2c1C[C@H]1C[C@H]3[C@H](N(C)C)C(O)=C(C(N)=O)C(=O)[C@@]3(O)C(O)=C1C2=O [Tigecycline] | – | – | – | – | 0.0464 | 0.0285 | 0.245 | -0.0488
CO[C@@H]1[C@@H](OC(N)=O)[C@@H](O)[C@H](Oc2ccc3c(O)c(NC(=O)c4ccc(O)c(CC=C(C)C)c4)c(=O)oc3c2C)OC1(C)C [Novobiocin] + CN[C@H](CC(C)C)C(=O)N[C@H]1C(=O)N[C@@H](CC(N)=O)C(=O)N[C@H]2C(=O)N[C@H]3C(=O)N[C@H](C(=O)N[C@H](C(=O)O)c4cc(O)cc(O)c4-c4cc3ccc4O)[C@H](O[C@H]3C[C@](C)(N)[C@@H](O)[C@H](C)O3)c3ccc(c(Cl)c3)Oc3cc2cc(c3O[C@@H]2O[C@H](CO)[C@@H](O)[C@H](O)[C@H]2O[C@H]2C[C@](C)(NCc3ccc(-c4ccc(Cl)cc4)cc3)[C@@H](O)[C@H](C)O2)Oc2ccc(cc2Cl)[C@H]1O [Oritavancin] | – | – | – | – | 0.0403 | -0.0612 | -0.0421 | -0.0768
CO[C@H]1/C=C/O[C@@]2(C)Oc3c(C)c(O)c4c(O)c(c(/C=N/N5CCN(C)CC5)c(O)c4c3C2=O)NC(=O)/C(C)=C\C=C\[C@H](C)[C@H](O)[C@@H](C)[C@@H](O)[C@@H](C)[C@H](OC(C)=O)[C@@H]1C [Rifampicin] + Oc1cc(Cl)ccc1Oc1ccc(Cl)cc1Cl [Triclosan] | – | – | – | – | -0.0563 | -0.0595 | 0.0445 | 0.0206
CO[C@@]12[C@H](COC(N)=O)C3=C(C(=O)C(C)=C(N)C3=O)N1C[C@@H]1N[C@@H]12 [MitomycinC] + O=C1CN(/N=C/c2ccc([N+](=O)[O-])o2)C(=O)N1 [Nitrofurantoin] | – | – | – | – | -0.145 | -0.0298 | -0.0788 | -0.0345
CC(=O)NC[C@H]1CN(c2ccc(N3CCOCC3)c(F)c2)C(=O)O1 [Linezolid] + CN(C)C(=O)C(CCN1CCC(O)(c2ccc(Cl)cc2)CC1)(c1ccccc1)c1ccccc1 [Loperamide] | – | – | – | – | 0.176 | 0.116 | 0.0436 | -0.0501
CC[C@H]1OC(=O)[C@H](C)[C@@H](O[C@H]2C[C@@](C)(OC)[C@@H](O)[C@H](C)O2)[C@H](C)[C@@H](O[C@@H]2O[C@H](C)C[C@H](N(C)C)[C@H]2O)[C@](C)(O)C[C@@H](C)C(=O)[C@H](C)[C@@H](O)[C@]1(C)O [Erythromycin] + COc1cc(Cc2cnc(N)nc2N)cc(OC)c1OC [Trimethoprim] | – | – | – | – | -0.0464 | 0.0179 | -0.155 | 0.0715
CC[C@H]1OC(=O)[C@H](C)[C@@H](O[C@H]2C[C@@](C)(OC)[C@@H](O)[C@H](C)O2)[C@H](C)[C@@H](O[C@@H]2O[C@H](C)C[C@H](N(C)C)[C@H]2O)[C@](C)(O)C[C@@H](C)C(=O)[C@H](C)[C@@H](O)[C@]1(C)O [Erythromycin] + CC(C1CCC(C(O1)OC2C(CC(C(C2O)OC3C(C(C(CO3)(C)O)NC)O)N)N)N)NC [Gentamicin] | 0.0656 | 0.0847 | 0.118 | 0.0427 | – | – | – | –

Source: the supplement of paper PMC10627819
